Where two headings read alike, the source gives them in different places. Marks after values point to notes of the source that are not given here.
Assays:
[1] = system: loss of righting reflex or other toxic effects on spinning rod; assay: Toxicity test (TOX), spinning rod, rat oral (NIH); type: in vivo, rats; conditions: 30 mg/kg
Protocol: (§1) 300 mg of each compound was synthesized and sent to the National institute of Health's Anticonvulsant Screening Project of the Antiepileptic Drug Discovery Program. NIH performs anticonvulsant testing (oral and intraperitoneal, i.p.) on both mice and rats in phase I trials. The grand mal model is conducted with a maximal electroshock (MES) test, where corneal electrode implants are primed with a drop of electrolyte solution and an electrical stimulus is delivered for 0.2 second. The model examines the compounds' ability to stop the spread of seizures. The petite mal model is conducted with a subcutaneous pentylenetetrazol seizure threshold (scMet) test. The animals are injected with a convulsant dose of pentylenetetrazol at the peak effect time of the compound. This model measures the compounds' threshold for seizures. A toxicity test (TOX) is performed where the animals walk on a spinning rod for varying lengths of time to check for the loss of righting reflex or other toxic effects.

[2] = system: seizures induced by maximal electroshock (MES); assay: Maximal electroshock (MES) test, mice i.p. (NIH); type: in vivo; conditions: for MES, animals protected/animals tested: mice i.p.; for MES, mice protected: phase I i.p. mice
Protocol: as §1

[3] = system: pentylenetetrazol-induced seizures (scMet); assay: Subcutaneous pentylenetetrazol seizure threshold (scMet) test, mice i.p. (NIH); type: in vivo; conditions: for SCMET, animals protected/animals tested: mice i.p.
Protocol: as §1

[4] = system: toxicity, lethal dose; assay: Toxicity / lethal dose noted with general anesthetic activity comparison; type: in vivo; conditions: for toxicity: same dosage = 300 mg/kg; for lethal dose: in vivo
Source text: (§2) A classical comparison of log P and MAC reduction was investigated. A graph representing the effects of log P on the biological activity is presented in graphic form (See FIG. 1). The general anesthetic activity of compounds 20-23 and 36-43 were compared to lead compound 17 as represented in the graph (FIG. 1) and in Table 1. The partition coefficient, P, is a measure of the way the compound distributes itself between octanol and water. […] Therefore, meta-substituted derivatives 20 will be the focus of future synthesize. Bulky substituents on the alcohol were also found to have low activity.

[5] = system: Isoflurane anesthesia (minimum alveolar concentration, MAC); assay: General anesthesia test: reduction of isoflurane MAC after i.p. compound; type: in vivo, rats; conditions: for anesthetic activity: rat, in vivo; for MAC value of Isoflurane at 60 mg/kg of compound / Percent Reduction in Isoflurane: rats; for MAC value of Isoflurane at 60 mg/kg of compound: 60 mg/kg i.p. in peanut oil, 1.2% isoflurane generates 100% anesthesia; for Percent Reduction in Isoflurane: 60 mg/kg i.p., relative to 1.2% isoflurane
Protocol: The MAC value is the minimum alveolar concentration of anesthetic at 1 atm that produces immobility in 50% of the subjects.
200 mg of each compound are tested for general anesthesia activity Testing is performed on rats to determine the percent reduction in the use of isoflurane. Inhaled anesthetics still need to be utilized to rapidly adjust the level of anesthesia. Since no single anesthetic is capable of all four requirements for anesthesia, a combination is utilized. The rats were first anesthetized with isoflurane, intubated, ventilated and then a femoral line was inserted. After the rat had been stable for 15 minutes, the initial minimum alveolar concentration (MAC) value was determined. […] After 30 minutes the second MAC value was determined post administration. Finally, after one hour the third MAC value was determined. At each MAC determination, a sample of blood was taken to determine pH, pCO2, and pO2. The results of the compounds tested to date are compared to the lead compound 17.
as §2

[6] = system: blood pressure / hemodynamics; assay: Hemodynamic effects during isoflurane anesthesia; type: in vivo, rats
Protocol: 200 mg of each compound are tested for general anesthesia activity Testing is performed on rats to determine the percent reduction in the use of isoflurane. Inhaled anesthetics still need to be utilized to rapidly adjust the level of anesthesia. Since no single anesthetic is capable of all four requirements for anesthesia, a combination is utilized. The rats were first anesthetized with isoflurane, intubated, ventilated and then a femoral line was inserted. After the rat had been stable for 15 minutes, the initial minimum alveolar concentration (MAC) value was determined. Then, 60 mg/kg of drug was sonicated in 3 mL of peanut oil and injected (i.p.). After 30 minutes the second MAC value was determined post administration. Finally, after one hour the third MAC value was determined. At each MAC determination, a sample of blood was taken to determine pH, pCO2, and pO2. The results of the compounds tested to date are compared to the lead compound 17.

[7] = system: loss of righting reflex or other toxic effects on spinning rod; assay: Toxicity test (TOX), spinning rod, mice i.p. (NIH); type: in vivo; conditions: for TOX, animals affected/animals tested: mice i.p.
Protocol: as §1

[8] = system: seizures induced by maximal electroshock (MES); assay: Maximal electroshock (MES) test, rat oral (NIH); type: in vivo, rats; conditions: 30 mg/kg; for MES, animals protected/animals tested: rat oral
Protocol: as §1

[9] = system: rats; assay: Anticonvulsant testing of compound 17 in rats (oral ED50, toxicity, surgical anesthesia); type: in vivo
Source text: In addition increased halogen size and saturation at the position 3 carbon also increase anesthetic activity. A hydrogen bond donor is also important at the position 2 carbon, but bulk is not well tolerated.

[10] = system: blood dyscrasias, rash; conditions: 1950's findings; cited from earlier work
[11] = system: seizures; conditions: cited from earlier work; for anticonvulsant activity: tested in the 1950's
[12] = rats, 60 mg/kg i.p., isoflurane anesthesia
[13] = 300 mg/kg, 0.5 hours, footnotes: loss of righting reflex (and one death for Cmp 20, 21)
[14] = 300 mg/kg, 4.0 hours, footnote c: loss of righting reflex (Cmp 20, 21)

Compound | MES, animals protected/animals tested ([2]; 30 mg/kg, 0.5 hours) | MES, animals protected/animals tested ([2]; 30 mg/kg, 4.0 hours) | MES, animals protected/animals tested ([2]; 100 mg/kg, 0.5 hours) | MES, animals protected/animals tested ([2]; 100 mg/kg, 4.0 hours) | SCMET, animals protected/animals tested ([3]; 30 mg/kg, 0.5 hours) | SCMET, animals protected/animals tested ([3]; 30 mg/kg, 4.0 hours) | SCMET, animals protected/animals tested ([3]; 100 mg/kg, 0.5 hours) | SCMET, animals protected/animals tested ([3]; 100 mg/kg, 4.0 hours) | toxicity [4] | anesthetic activity [5] | MAC value of Isoflurane at 60 mg/kg of compound [5] | Percent Reduction in Isoflurane [5] | Hemodynamic Effects [6, 12] | TOX, animals affected/animals tested ([7]; 30 mg/kg, 0.5 hours) | TOX, animals affected/animals tested ([7]; 30 mg/kg, 4.0 hours) | TOX, animals affected/animals tested ([7]; 100 mg/kg, 0.5 hours) | TOX, animals affected/animals tested ([7]; 100 mg/kg, 4.0 hours) | TOX, animals affected/animals tested [7, 13] | TOX, animals affected/animals tested [7, 14] | further results
NC(=O)C(O)(c1ccc(Cl)cc1)C(F)(F)F (racemic) [Compound 21] | 0/1 | 0/1 | 0/3 | 1/3 | 0/1 | 0/1 | 4/4 | 1/1 | toxic at the same dosage | very active | 0.65% | 46% | none | 0/4 | 0/2 | 6/8 | 3/4 | 4/4^b | 1/1^c | TOX, animals affected/animals tested ([1]; 0.25 hrs.): 0/4; TOX, animals affected/animals tested ([1]; 0.5 hrs.): 0/4; TOX, animals affected/animals tested ([1]; 1.0 hrs.): 0/4; TOX, animals affected/animals tested ([1]; 2.0 hrs.): 0/4; TOX, animals affected/animals tested ([1]; 4.0 hrs.): 0/4; SCMET, animals protected/animals tested ([3]; 300 mg/kg, 0.5 hours): 0/0; SCMET, animals protected/animals tested ([3]; 300 mg/kg, 4.0 hours): 1/1; MES, animals protected/animals tested ([8]; 0.25 hrs.): 1/4; MES, animals protected/animals tested ([8]; 0.5 hrs.): 1/4; MES, animals protected/animals tested ([8]; 1.0 hrs.): 1/4; MES, animals protected/animals tested ([8]; 2.0 hrs.): 1/4; MES, animals protected/animals tested ([8]; 4.0 hrs.): 1/4
NC(=O)C(O)(c1ccccc1)C(F)(F)F (stereo not drawn) [Compound 17, 3,3,3-Trifluoro-2-hydroxy-2-phenyl-propionamide] | – | – | – | – | – | – | – | – | – | – | 0.65% | 46% | – | – | – | – | – | – | – | ED50 ([9]; Rattus norvegicus, rats, oral, read-out: anesthetic activity, oral ED50): 9 mg/kg; toxicity at dose ([9]; rats, oral): 300 mg/kg; stage of anesthesia exhibited by animals ([9]; third stage: general loss of spinal reflexes and muscle tone): surgical anesthesia; lowering of minimum alveolar concentration (MAC) value of isoflurane ([5]; isoflurane 1.2% in O2, dose not stated): sixty; Hemodynamic Effects ([6]; rat, in vivo): no hemodynamic effects; Hemodynamic Effects ([6]; rat, in vivo, ip, 60 mg/kg): none
O=C1Nc2ccccc2C1(O)C(F)(F)F (stereo not drawn) [Compound 22] | – | – | – | – | – | – | – | – | – | – | 1.05% | 12.5% | none | – | – | – | – | – | – | –
NC(=O)C(O)(c1ccc(F)cc1)C(F)(F)F (stereo not drawn) [Compound 39, 3,3,3-Trifluoro-2-hydroxy-2-(4-fluoro-phenyl)-propionamide] | – | – | – | – | – | – | – | – | toxic at the same dosage | very active | – | – | – | – | – | – | – | – | – | MES, mice protected ([2]; 100 mg/kg, duration of 0.5 hours): 5 out of 5; MES, mice protected ([2]; 100 mg/kg, duration of 1 hour): 2 out of 3; activity as an anticonvulsant in scMET assay ([3]; species and dose not stated): demonstrated activity; animals with a 100% reduction in Isoflurane MAC ([5]; 300 mg/kg): 3 out of 4; Neurotoxicity, mice unable to grasp rod ([7]; mice, 100 mg/kg, duration of 0.5 hours): seven of eight; MES, rats protected ([8]; phase I oral rat, duration of 2 hours): 4 out of 4
CN1C(=O)C(O)(C(F)(F)F)c2ccccc21 (stereo not drawn) [Compound 23] | 0/1 | 0/1 | 3/3 | 0/3 | 1/5 | 0/1 | 0/1 | 0/1 | – | – | 0.95% | 20.8% | none | 0/4 | 0/2 | 1/8 | 0/4 | 4/4^c | 1/2 | TOX, animals affected/animals tested ([1]; 0.25 hrs.): 0/4; TOX, animals affected/animals tested ([1]; 0.5 hrs.): 0/4; TOX, animals affected/animals tested ([1]; 1.0 hrs.): 0/4; TOX, animals affected/animals tested ([1]; 2.0 hrs.): 0/4; TOX, animals affected/animals tested ([1]; 4.0 hrs.): 0/4; MES, animals protected/animals tested ([2]; 300 mg/kg, 0.5 hours): 1/1; MES, animals protected/animals tested ([2]; 300 mg/kg, 4.0 hours): 1/1; SCMET, animals protected/animals tested ([3]; 300 mg/kg, 0.5 hours): 1/1; SCMET, animals protected/animals tested ([3]; 300 mg/kg, 4.0 hours): 1/1; MES, animals protected/animals tested ([8]; 0.25 hrs.): 2/4; MES, animals protected/animals tested ([8]; 0.5 hrs.): 1/4; MES, animals protected/animals tested ([8]; 1.0 hrs.): 2/4; MES, animals protected/animals tested ([8]; 2.0 hrs.): 2/4; MES, animals protected/animals tested ([8]; 4.0 hrs.): 2/4
NC(=O)C(O)(c1cccc(F)c1)C(F)(F)F (racemic) [Compound 20] | 0/1^a | 0/1 | 3/3 | 3/3 | 2/5 | 0/1 | 1/1 | 1/1 | very toxic | high activity | 0.70% | 42% | lowers blood | 0/4 | 0/2 | 6/8 | 0/4 | 4/4^b | 1/1^c | MES, animals protected/animals tested ([2]; 300 mg/kg, 0.5 hours): 0/0; MES, animals protected/animals tested ([2]; 300 mg/kg, 4.0 hours): 1/1; lethal dose [4]: 300 mg/kg
NC(=O)C(O)(c1ccccc1)C(F)(F)Cl (stereo not drawn) [Compound 42] | – | – | – | – | – | – | – | – | very toxic | high activity | – | – | – | – | – | – | – | – | – | lethal dose [4]: 300 mg/kg
CC(O)(C(N)=O)c1ccccc1 (racemic) [Themisone, α-hydroxy-α-methylbenzeneacetamide] | – | – | – | – | – | – | – | – | – | no anesthetic activity | – | – | – | – | – | – | – | – | – | toxicity [10]: toxic (blood dyscrasias, rash); mice protected against seizures ([11]; racemic mixture, 250 mg/kg): 4 out of 4; anticonvulsant activity [11]: very potent anticonvulsant; anticonvulsant activity ([11]; listed as atrolactamide (themisone)): anticonvulsant activity

Source: US7414078B2, “Oral general anesthetics and metabolitically resistant anticonvulsants” (University of Virginia Patent Foundation, priority 2001, dated 2008)
